Experimental data as given in patent US20220041559A1, “BENZO-AND PYRIDO-PYRAZOLES AS PROTEIN KINASE INHIBITORS” (ROTTAPHARM BIOTECH S.R.L., priority 2019, published 2022).
Where two headings read alike, the source gives them in different places.

Tests used:
FYN = molecular target: T1, FYN (Homo sapiens, UniProt P06241); test: Z'-LYTE in vitro kinase assay, FYN kinase inhibition; type: biochemical; conditions: near-Km ATP, 60 minutes at 25° C.
T1 construct: purchased CarnaBioscience
Description: Assays to determine the kinase inhibitory activity of compounds were performed using an automatic liquid handling device (Microlab STAR Hamilton) and Z′-LYTE™ Kinase Assay Platform (Invitrogen), a Fluorescence Resonance Energy Transfer (FRET)-based assay platform compatible with high-throughput screening (HTS) applications. The assay employs a fluorescence-based, coupled-enzyme format and utilizes the differential sensitivity of phosphorylated and non-phosphorylated peptides to proteolytic cleavage.
Test compounds were evaluated towards active FYN (CarnaBioscience). The enzyme was incubated in a 384 low-volume microplate with a synthetic peptide-substrate, ATP and different inhibitor concentrations, ranging from 10^−10 M up to 10^−5 M final concentration. Samples representing the 0% inhibition (or total enzymatic activity) were in the presence of compound diluent (1% DMSO final) in Reaction Buffer (50 mM Hepes, 10 mM MgCl2, 1 mM EGTA, 0.01% Brij-35, pH 7.5).
A near-Km ATP concentrations for the kinase and an optimal enzyme concentration that phosphorylates 20-40% of the Z′-LYTE™ Tyr 2 Peptide in a one-hour incubation, were selected. All reagents were diluted in reaction buffer and the kinase reaction was carried out in a total volume of 10 μl, for 60 minutes at 25° C. The 0% Phosphorylation (i.e. no ATP) and 100% Phosphorylation (i.e. synthetically phosphorylated peptide supplied) Assay Controls, included in each plate, allowed to calculate the percent phosphorylation achieved in the specific reaction well. The 0% Inhibition and 0% Phosphorylation (i.e. 100% Inhibition) Controls define the dynamic range in the screen. At the end of incubation, a secondary reaction (the Development Reaction) started by adding 5 μl of Development Reagent, containing a site-specific protease that recognizes and cleaves non-phosphorylated peptides, and was interrupted after 60 minutes with 5 μl/sample of Stop Reagent. Measurement of the Coumarin (Ex. 400 nm, Em. 460 nm) and Fluorescein (Ex. 400 nm, Em. 535 nm) emission signals were performed by a fluorescence plate reader (Envision, PerkinElmer).
Results are expressed as percentage of inhibition and the IC50 values were calculated by non-linear curve fitting using GraphPad™ Prism software.

VEGFR2 (KDR) kinase = molecular target: T2, VEGFR2 (KDR) kinase (Homo sapiens, UniProt P35968); test: ADP-Glo in vitro kinase assay, VEGFR2 kinase inhibition; type: biochemical; conditions: for IC50: ATP 50 μM, 30 minutes at room temperature; for VEGFR2 kinase inhibition, result in words: Table 19
T2 construct: purchased SignalChem
Description: (§1) The ADP-Glo™ Kinase Assay (Promega), monitoring ADP produced in the kinase reaction, was performed in two steps. In the first one, after the kinase reaction, the ADP-Glo™ Reagent is added to terminate the kinase reaction and deplete the remaining ATP. In the second step, the Kinase Detection Reagent is added to simultaneously convert ADP to ATP (ATPn or newly synthesized ATP) and introduce luciferase and luciferin, allowing the ATPn to be measured (luciferase/luciferin reaction). The amount of light generated correlates with the amount of ATPn (indirectly with the ADP produced in kinase reaction).
(§2) Kinase reaction was performed in 10 μl in a white 384-well plate, inhibitor solutions in DMSO/Kinase buffer (40 mM Tris-Cl, 20 mM MgCl2, 0.1 mg/ml BSA, 50 μM DTT, pH 7.5) and VEGFR2 (KDR) kinase in Kinase buffer (SignalChem, 0.5 ng/μl final concentration in assay) were pre-incubate 15 minutes at room temperature. At the kinase concentration selected, a signal-to negative control ratio >10 was calculated, according to supplier indication. In samples representing the Total enzymatic activity or the negative control (no enzyme), inhibitor solution was replaced by diluents (1 DMSO in kinase buffer, final concentration) or ultra-pure water, respectively.
(§3) The range of inhibitor concentrations was from 10^−11 M up to 3×10^−6 M (final concentration in assay) and each experimental point was performed in duplicate.
(§4) To start the reaction, a substrate/ATP mix (50 μM final concentration, near to ATP Km value) was added to each sample and after 30 minutes incubation at room temperature, ADP-Glo™ Reagent and Kinase Detection Reagent, incubated in sequence according to the respective incubation time and supplier indication, allowed to stop and develop the kinase reaction. The luminescence was measured with a plate-reading luminometer (Envision 2104 Multilabel reader, PerkinElmer). The percentage of inhibition was calculated towards the Total enzymatic activity and the corresponding curves were analyzed by non linear curve fitting (GraphPad software, version 7 for Windows), allowing to calculate the IC50 value±standard error of the value

EGFR = EGFR (Homo sapiens, UniProt P00533); test: ADP-Glo in vitro kinase assay, EGFR kinase inhibition; type: biochemical; parameters: purchased SignalChem; conditions: for IC50: ATP 10 μM, 30 minutes at room temperature; for EGFR kinase inhibition, result in words: text summary of Table 18
Description: as §1
as §2, with “EGFR” for “VEGFR2 (KDR)”, “2.5” for “0.5”, “selected” for “selected,”, “activity (no inhibitor)” for “activity”
as §3
as §4, with “mix (ATP 10” for “mix (50”, “the estimate.” for “the value”

[1] = Pharmacokinetics in CD1 mice, iv and po; type: in vivo; conditions: 3 mg/kg; for half-life: read-out: t½* (converted)

EGFR, sequence (P00533 25-1210): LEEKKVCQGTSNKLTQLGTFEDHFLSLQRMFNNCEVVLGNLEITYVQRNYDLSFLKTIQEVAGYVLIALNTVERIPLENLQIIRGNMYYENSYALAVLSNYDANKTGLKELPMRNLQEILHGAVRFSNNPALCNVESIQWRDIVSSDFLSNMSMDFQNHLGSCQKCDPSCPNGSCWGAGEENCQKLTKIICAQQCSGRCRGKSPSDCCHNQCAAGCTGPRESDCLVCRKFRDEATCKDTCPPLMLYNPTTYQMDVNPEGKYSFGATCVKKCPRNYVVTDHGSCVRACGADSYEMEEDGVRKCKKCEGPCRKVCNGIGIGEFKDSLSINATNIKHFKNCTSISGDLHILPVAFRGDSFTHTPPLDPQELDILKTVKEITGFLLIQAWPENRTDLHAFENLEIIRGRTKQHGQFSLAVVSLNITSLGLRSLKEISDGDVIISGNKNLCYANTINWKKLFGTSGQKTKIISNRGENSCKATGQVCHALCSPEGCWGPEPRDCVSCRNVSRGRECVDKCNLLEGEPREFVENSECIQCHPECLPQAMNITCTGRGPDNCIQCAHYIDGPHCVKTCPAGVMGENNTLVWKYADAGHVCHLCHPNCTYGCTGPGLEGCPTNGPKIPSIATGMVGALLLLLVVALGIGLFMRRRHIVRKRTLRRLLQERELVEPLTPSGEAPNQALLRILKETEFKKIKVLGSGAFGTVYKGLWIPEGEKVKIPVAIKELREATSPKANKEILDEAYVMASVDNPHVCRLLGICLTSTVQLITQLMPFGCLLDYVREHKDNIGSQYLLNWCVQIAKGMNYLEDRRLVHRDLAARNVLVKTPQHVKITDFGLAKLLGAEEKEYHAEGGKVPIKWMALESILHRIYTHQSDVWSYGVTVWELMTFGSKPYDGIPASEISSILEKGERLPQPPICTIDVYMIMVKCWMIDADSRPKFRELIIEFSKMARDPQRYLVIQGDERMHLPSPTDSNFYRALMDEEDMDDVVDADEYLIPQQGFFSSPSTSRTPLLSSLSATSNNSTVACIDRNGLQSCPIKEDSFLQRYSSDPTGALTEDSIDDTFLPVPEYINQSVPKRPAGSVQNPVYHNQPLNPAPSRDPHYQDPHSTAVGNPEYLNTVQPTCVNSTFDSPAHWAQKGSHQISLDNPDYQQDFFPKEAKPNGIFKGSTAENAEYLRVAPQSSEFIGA
T1 sequence (P06241 whole entry): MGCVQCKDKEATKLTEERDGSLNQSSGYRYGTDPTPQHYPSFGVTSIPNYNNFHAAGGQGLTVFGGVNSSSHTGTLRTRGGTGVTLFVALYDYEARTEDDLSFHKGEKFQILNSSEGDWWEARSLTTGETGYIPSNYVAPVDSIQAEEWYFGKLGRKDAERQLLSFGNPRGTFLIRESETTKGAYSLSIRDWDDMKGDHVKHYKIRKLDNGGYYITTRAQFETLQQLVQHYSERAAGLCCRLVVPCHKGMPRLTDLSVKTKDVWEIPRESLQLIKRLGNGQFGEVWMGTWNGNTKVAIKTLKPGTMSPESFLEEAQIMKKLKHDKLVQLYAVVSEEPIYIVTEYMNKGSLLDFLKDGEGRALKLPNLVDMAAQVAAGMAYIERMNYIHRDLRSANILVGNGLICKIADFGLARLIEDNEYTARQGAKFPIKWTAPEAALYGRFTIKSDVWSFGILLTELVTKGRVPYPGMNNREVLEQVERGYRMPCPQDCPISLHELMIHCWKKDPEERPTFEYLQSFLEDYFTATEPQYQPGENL
T2 sequence (P35968 20-1356): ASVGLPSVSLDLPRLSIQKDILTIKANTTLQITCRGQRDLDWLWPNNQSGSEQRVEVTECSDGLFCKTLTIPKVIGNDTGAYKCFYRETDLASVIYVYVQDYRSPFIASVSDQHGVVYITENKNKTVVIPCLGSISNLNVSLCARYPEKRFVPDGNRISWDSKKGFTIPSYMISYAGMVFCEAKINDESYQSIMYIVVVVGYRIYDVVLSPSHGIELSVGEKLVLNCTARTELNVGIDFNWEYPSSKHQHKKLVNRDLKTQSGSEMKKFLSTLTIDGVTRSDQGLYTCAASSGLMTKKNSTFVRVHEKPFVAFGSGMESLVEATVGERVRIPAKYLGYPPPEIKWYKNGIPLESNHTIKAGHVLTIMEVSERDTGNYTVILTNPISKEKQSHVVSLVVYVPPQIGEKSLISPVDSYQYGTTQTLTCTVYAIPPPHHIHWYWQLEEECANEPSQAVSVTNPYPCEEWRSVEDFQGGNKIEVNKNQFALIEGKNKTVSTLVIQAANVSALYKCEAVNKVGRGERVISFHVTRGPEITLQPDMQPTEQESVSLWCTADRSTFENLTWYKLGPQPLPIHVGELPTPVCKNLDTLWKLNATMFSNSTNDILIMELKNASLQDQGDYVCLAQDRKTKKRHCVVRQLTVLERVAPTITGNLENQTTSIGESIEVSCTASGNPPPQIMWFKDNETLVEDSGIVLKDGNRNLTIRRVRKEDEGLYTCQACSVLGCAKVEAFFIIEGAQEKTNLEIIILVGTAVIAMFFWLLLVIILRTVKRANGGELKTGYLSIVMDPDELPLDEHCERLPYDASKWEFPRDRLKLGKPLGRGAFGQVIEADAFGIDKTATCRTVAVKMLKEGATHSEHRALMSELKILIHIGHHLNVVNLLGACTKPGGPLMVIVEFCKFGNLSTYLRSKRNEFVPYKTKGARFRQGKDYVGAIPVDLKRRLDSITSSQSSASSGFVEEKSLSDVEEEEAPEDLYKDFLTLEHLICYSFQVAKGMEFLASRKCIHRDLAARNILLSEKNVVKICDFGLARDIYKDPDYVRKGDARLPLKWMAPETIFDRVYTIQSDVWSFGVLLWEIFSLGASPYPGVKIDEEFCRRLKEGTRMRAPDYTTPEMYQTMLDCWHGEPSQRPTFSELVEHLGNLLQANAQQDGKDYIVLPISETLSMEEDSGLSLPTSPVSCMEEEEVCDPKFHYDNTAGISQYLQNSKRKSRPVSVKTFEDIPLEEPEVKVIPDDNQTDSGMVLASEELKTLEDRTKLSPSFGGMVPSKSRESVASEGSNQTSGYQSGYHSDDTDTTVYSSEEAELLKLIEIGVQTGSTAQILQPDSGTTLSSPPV

Structure (SMILES)	IC50 (FYN)	IC50 (VEGFR2 (KDR) kinase)	IC50 (EGFR)	VEGFR2 kinase inhibition, result in words (VEGFR2 (KDR) kinase)	other results
CN1CCC(c2ccc(C(=O)Nc3n[nH]c4nc(Nc5ccc(C#N)cc5)ccc34)cc2)CC1 [Compound 32, N-(6-((4-cyanophenyl)amino)-1H-pyrazolo[3,4-b]pyridin-3-yl)-4-(1-methylpiperidin-4-yl)benzamide]	0.356 µM	0.003 µM	≥ 1 µM	more potent	
CN1CCC(Oc2ccc(C(=O)Nc3n[nH]c4cc(Oc5ccccc5F)ccc34)cc2)CC1 [Compound 37, N-(6-(2-fluorophenoxy)-1H-indazol-3-yl)-4((1-methylpiperidin-4-yl)oxy)benzamide]	0.388 µM	0.437 µM	≥ 1 µM		
CN1CCC(c2ccc(C(=O)Nc3n[nH]c4cc(Nc5ccccc5F)ccc34)nc2)CC1 [Compound 39, N-(6((2-fluorophenyl)amino)-1H-indazol-3-yl)-5-(1-methylpiperidin-4-yl)picolinamide]	0.181 µM	0.533 µM	≥ 1 µM		
CN1CCC(Oc2ccc(C(=O)Nc3n[nH]c4nc(Nc5ccccc5F)ccc34)cc2)CC1 [Compound 47, N-(6-((2-fluorophenyl)amino)-1H-pyrazolo[3,4-b]pyridin-3-yl)-4((1-methylpiperidin-4-yl)oxy)benzamide]	0.513 µM	0.012 µM	0.024 µM	more potent	EGFR kinase inhibition, result in words (EGFR): more active

Stronger by IC50 (FYN), values ahead:

IC50 (FYN)	IC50 (VEGFR2 (KDR) kinase)	IC50 (EGFR)	VEGFR2 kinase inhibition, result in words (VEGFR2 (KDR) kinase)	Structure (SMILES)	other results
0.104 µM	0.105 µM	0.102 µM		CN1CCC(c2ccc(C(=O)Nc3n[nH]c4cc(Nc5c(F)cccc5Cl)ccc34)cc2)CC1 [Compound 1, N-(6-((2-chloro-6-fluorophenyl)amino)-1H-indazol-3-yl)-4-(1-methylpiperidin-4-yl)benzamide]	EGFR kinase inhibition, result in words (EGFR): more active
0.099 µM	0.126 µM	≥ 1 µM		Cc1ccc(Nc2ccc3c(NC(=O)c4ccc(C5CCN(C)CC5)cc4)n[nH]c3c2)c(F)c1 [Compound 8, N-(6-((2-fluoro-4-methylphenyl)amino)-1H-indazol-3-yl)-4-(1-methylpiperidin-4-yl)benzamide]	
0.095 µM	0.001 µM	≥ 1 µM	more potent	CN1CCC(c2ccc(C(=O)Nc3n[nH]c4nc(Nc5ccccc5)ccc34)cc2)CC1 [Compound 29, 4-(1-methylpiperidin-4-yl)-N-(6-(phenylamino)-1H-pyrazolo[3,4-b]pyridin-3-yl)benzamide]	
0.087 µM	0.222 µM	0.225 µM		CN1CCC(c2ccc(C(=O)Nc3n[nH]c4cc(Nc5ccccc5F)ccc34)cc2)CC1 [Compound 17, N-(6-((2-fluorophenyl)amino)-1H-indazol-3-yl)-4-(1-methylpiperidin-4-yl)benzamide]	Tlast ([1]; iv): 24 h; AUC(0-inf) ([1]; mouse, plasma, iv): 1400 ng·h/mL; AUC(0-t) ([1]; mouse, plasma, iv): 1350 ng·h/mL; clearance ([1]; mouse, plasma, iv, read-out: CLp): 47.7 mL/min/kg; Vd ([1]; mouse, plasma, iv, read-out: Vz): 22.8 L/kg; half-life ([1]; mouse, plasma, iv): 5.5 h; AUC(0-inf) ([1]; mouse, plasma, po): 726 ng·h/mL; AUC(0-t) ([1]; mouse, plasma, po): 712 ng·h/mL; Cmax ([1]; mouse, plasma, po): 178 nM; Tmax ([1]; mouse, plasma, po): 1 h; bioavailability ([1]; mouse, plasma, po): 53%; half-life ([1]; mouse, plasma, po): 4.5 h; Tlast ([1]; po): 24 h
0.082 µM	0.058 µM	≥ 1 µM		CN1CCC(c2ccc(C(=O)Nc3n[nH]c4cc(Nc5ccccc5Cl)ccc34)cc2)CC1 [Compound 14, N-(6-((2-chlorophenyl)amino)-1H-indazol-3-yl)-4-(1-methylpiperidin-4-yl)benzamide]	
